Values after ≈ are worked out from the molar mass of the structure shown. A value given as a limit tells only on which side of the number the result lay.

Holding throughout (assay): Broth microdilution MIC in CAMHB
What all share (format): cell-based
(In general: Dilution methods test growth across graded concentrations, often in twofold steps.)

Experiment [1] deals with K. pneumoniae UMM producing SHV-5 and KPC-2. The following applies: Klebsiella pneumoniae, read-out: Minimum Inhibitory Concentration, K. pneumoniae UMM. The procedure, abridged:
(§1)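 Hyper-permeable or efflux-deficient strains serve to probe outer-membrane penetration. Growth inhibition is scored visually after 16-20 h at 37° C in CAMHB, starting from 2-8×10^5 CFU/mL.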

For experiment [2], the system named is E. coli AG100. The settings on record: Escherichia coli; E. coli AG100 (wild-type parent); MHB; read-out: Minimum Inhibitory Concentration, E. coli AG100. In outline:
as §1

The test system of experiment [3] is E. coli D22. The following applies: Escherichia coli; E. coli D22 (hyper-permeable); MHB; read-out: Minimum Inhibitory Concentration, E. coli D22. In outline: as §1
The subject of experiment [4] is E. coli 901C. The following applies: Escherichia coli; E. coli 901C (hyper-permeable); MHB; read-out: Minimum Inhibitory Concentration, E. coli 901C. The procedure, abridged:
as §1

Experiment [5] relates to E. coli AG100A. The following applies: Escherichia coli, read-out: Minimum Inhibitory Concentration, E. coli AG100A. In outline: as §1
Experiment [6] has as its system P. aeruginosa ATCC 35151. The following applies: Pseudomonas aeruginosa, ATCC35151; MHB; hyper-permeable strain; read-out: Minimum Inhibitory Concentration, P. aeruginosa ATCC 35151. In outline: as §1
Experiment [7] relates to K. pneumoniae SI-117 producing VIM-1. The settings on record: Klebsiella pneumoniae, read-out: Minimum Inhibitory Concentration, K. pneumoniae SI-117. The procedure, abridged: as §1
In experiment [8] the test system is E. coli ATCC 25922. The settings on record: Escherichia coli, ATCC25922; E. coli ATCC 25922; MHB; read-out: Minimum Inhibitory Concentration, E. coli 25922. In outline: as §1
The test system of experiment [9] is P. aeruginosa (ΔmexAB-oprM). The following applies: Pseudomonas aeruginosa, read-out: Minimum Inhibitory Concentration, P. aeruginosa ΔmexAB-OprM. The procedure, abridged: as §1
The subject of experiment [10] is A. baumannii ATCC 19606. The settings on record: Acinetobacter baumannii, ATCC19606; MHB; read-out: Minimum Inhibitory Concentration, A. baumannii ATCC 19606. The procedure, abridged: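 MIC, read by eye, is the lowest compound concentration giving no bacterial growth after 16-20 h at 37° C. Test compounds are serially diluted 2-fold in CAMHB and seeded with 2-8×10^5 CFU/mL of bacteria taken from a 3-5 h shaking culture, following CLSI methods.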

In experiment [11] the test system is P. aeruginosa ATCC 27853. The following applies: Pseudomonas aeruginosa, ATCC27853; MHB; read-out: Minimum Inhibitory Concentration, P. aeruginosa ATCC 27853. The procedure, abridged:
as §1

Experiment [12] relates to K. pneumoniae 848844 producing SHV-11 and KPC-2. The following applies: Klebsiella pneumoniae, read-out: Minimum Inhibitory Concentration, K. pneumoniae 848844. The procedure, abridged: as §1

As to `CCN1CCN(C(=O)NC(C(=O)N[C@H]2Cc3cccc(C(=O)O)c3OB2O)c2cc(F)c(O)c(Cl)c2)C(=O)C1=O` (stereo partly drawn) [Example 164, (3R)-3-(2-(3-chloro-5-fluoro-4-hydroxyphenyl)-2-(4-ethyl-2,3-dioxopiperazine-1-carboxamido)acetamido)-2-hydroxy-3,4-dihydro-2H-benzo[e][1,2]oxaborinine-8-carboxylic acid], the MIC in experiment [1] is 32 to 64 µg/mL (≈ 55.5 to 111 µM); in [2], 32 to 64 µg/mL (≈ 55.5 to 111 µM); in experiment [3] it was 2 to 4 µg/mL (≈ 3.47 to 6.94 µM); in experiment [4] it was less than 0.25 µg/mL; in experiment [5] it was 2 to 4 µg/mL (≈ 3.47 to 6.94 µM); in experiment [6], less than 0.25 µg/mL. For the same compound, the MIC in [7] is more than 128 µg/mL; in [8], 32 to 64 µg/mL (≈ 55.5 to 111 µM); in [9] it was 2 to 4 µg/mL (≈ 3.47 to 6.94 µM); in experiment [10] it was more than 128 µg/mL; in experiment [11], more than 128 µg/mL; in experiment [12], more than 128 µg/mL.
As to `CCN1CCN(C(=O)NC(C(=O)N[C@H]2Cc3cccc(C(=O)O)c3OB2O)c2cc(Cl)c(O)c(Cl)c2)C(=O)C1=O` (stereo partly drawn) [Example 171, (3R)-3-(2-(3,5-dichloro-4-hydroxyphenyl)-2-(4-ethyl-2,3-dioxopiperazine-1-carboxamido)acetamido)-2-hydroxy-3,4-dihydro-2H-benzo[e][1,2]oxaborinine-8-carboxylic acid], the MIC is 32 to 64 µg/mL (≈ 53.9 to 108 µM) in [1]; 32 to 64 µg/mL (≈ 53.9 to 108 µM) in experiment [2]; 2 to 4 µg/mL (≈ 3.37 to 6.74 µM) in experiment [3]; less than 0.25 µg/mL in experiment [4]; 2 to 4 µg/mL (≈ 3.37 to 6.74 µM) in experiment [5]; less than 0.25 µg/mL in [6]. The MIC in [7] was more than 128 µg/mL; in experiment [8] it was 32 to 64 µg/mL (≈ 53.9 to 108 µM); in experiment [9] it was 2 to 4 µg/mL (≈ 3.37 to 6.74 µM); in experiment [10], more than 128 µg/mL; in [11], more than 128 µg/mL; in experiment [12], more than 128 µg/mL.
Turning to `CCN1CCN(C(=O)NC(C(=O)N[C@H]2Cc3cccc(C(=O)O)c3OB2O)c2cc(F)c(O)c(F)c2F)C(=O)C1=O` (stereo partly drawn) [Example 172, (3R)-3-(2-(4-ethyl-2,3-dioxopiperazine-1-carboxamido)-2-(2,3,5-trifluoro-4-hydroxyphenyl)acetamido)-2-hydroxy-3,4-dihydro-2H-benzo[e][1,2]oxaborinine-8-carboxylic acid], the MIC in [1] was 32 to 64 µg/mL (≈ 55.3 to 111 µM); in experiment [2], 8 to 16 µg/mL (≈ 13.8 to 27.7 µM); in experiment [3], 2 to 4 µg/mL (≈ 3.46 to 6.92 µM); in experiment [4] it was less than 0.25 µg/mL; in experiment [5], 2 to 4 µg/mL (≈ 3.46 to 6.92 µM); in [6], less than 0.25 µg/mL. The MIC in experiment [7] was more than 128 µg/mL; in [8], 32 to 64 µg/mL (≈ 55.3 to 111 µM); in experiment [9] it was 2 to 4 µg/mL (≈ 3.46 to 6.92 µM); in experiment [10], more than 128 µg/mL; in [11] it was more than 128 µg/mL; in [12] it was more than 128 µg/mL.
Turning to `CCN1CCN(C(=O)NC(C(=O)N[C@H]2Cc3cccc(C(=O)O)c3OB2O)c2ccc(O)c(F)c2F)C(=O)C1=O` (stereo partly drawn) [Example 173], the MIC in [1] was 32 to 64 µg/mL (≈ 57.1 to 114 µM); in [2] it was 8 to 16 µg/mL (≈ 14.3 to 28.6 µM); in experiment [3] it was 2 to 4 µg/mL (≈ 3.57 to 7.14 µM); in experiment [4], less than 0.25 µg/mL; in experiment [5] it was 2 to 4 µg/mL (≈ 3.57 to 7.14 µM); in experiment [6], 0.5 to 1 µg/mL (≈ 0.892 to 1.78 µM). Further, the MIC is 32 to 64 µg/mL (≈ 57.1 to 114 µM) in [7]; 8 to 16 µg/mL (≈ 14.3 to 28.6 µM) in experiment [8]; 2 to 4 µg/mL (≈ 3.57 to 7.14 µM) in [9]; more than 128 µg/mL in experiment [10]; more than 128 µg/mL in experiment [11]; more than 128 µg/mL in [12].
As for `NCCN1CCN(C(=O)NC(C(=O)N[C@H]2Cc3cccc(C(=O)O)c3OB2O)c2c(F)c(F)c(O)c(F)c2F)C(=O)C1=O` (stereo partly drawn) [Example 174, (3R)-3-(2-(4-(2-aminoethyl)-2,3-dioxopiperazine-1-carboxamido)-2-(2,3,5,6-tetrafluoro-4-hydroxyphenyl)acetamido)-2-hydroxy-3,4-dihydro-2H-benzo[e][1,2]oxaborinine-8-carboxylic acid], the MIC was in the range of 32 to 64 µg/mL (≈ 52.4 to 105 µM) in [1]; 8 to 16 µg/mL (≈ 13.1 to 26.2 µM) in experiment [2]; 2 to 4 µg/mL (≈ 3.27 to 6.54 µM) in [3]; 0.5 to 1 µg/mL (≈ 0.818 to 1.64 µM) in [4]; 2 to 4 µg/mL (≈ 3.27 to 6.54 µM) in experiment [5]; 0.5 to 1 µg/mL (≈ 0.818 to 1.64 µM) in experiment [6]. For the same compound, the MIC in experiment [7] is more than 128 µg/mL; in experiment [8] it was 32 to 64 µg/mL (≈ 52.4 to 105 µM); in experiment [9], 8 to 16 µg/mL (≈ 13.1 to 26.2 µM); in experiment [10] it was more than 128 µg/mL; in [11], more than 128 µg/mL; in experiment [12], more than 128 µg/mL.

These data come from patent US20230114728A1 (Venatorx Pharmaceuticals, Inc., priority 2019, published 2023).
